Reference: ChEMBL document CHEMBL2440076, “New triarylpyrazoles as broad-spectrum anticancer agents: design, synthesis, and biological evaluation” (Eur J Med Chem, 2013)

Assays:
T47D = assay: Growth inhibition of human T47D cells after 48 hrs by sulforhodamine B assay; format: functional
TK-10 [1] = assay: Growth inhibition of human TK10 cells assessed as cell growth at 10 uM after 48 hrs by sulforhodamine B assay; format: functional; settings: TK-10, 48 h, read-out: Activity
SNB-19 = assay: Growth inhibition of human SNB19 cells assessed as cell growth at 10 uM after 48 hrs by sulforhodamine B assay; format: functional; settings: SNB-19, 48 h, read-out: Activity
MCF7 = assay: Growth inhibition of human MCF7 cells after 48 hrs by sulforhodamine B assay; format: functional; settings: MCF7, 48 h
K562 [2] = assay: Growth inhibition of human K562 cells assessed as cell growth at 10 uM after 48 hrs by sulforhodamine B assay; format: functional; settings: K562, 48 h, read-out: Activity
MDA-MB-468 [3] = assay: Growth inhibition of human MDA-MB-468 cells after 48 hrs by sulforhodamine B assay; format: functional, cell-based; settings: MDA-MB-468, 48 h
KM12 = assay: Growth inhibition of human KM12 cells after 48 hrs by sulforhodamine B assay; format: functional, cell-based; settings: KM12, 48 h
SK-MEL-2 [4] = assay: Growth inhibition of human SK-MEL-2 cells after 48 hrs by sulforhodamine B assay; format: functional; settings: SK-MEL-2, 48 h
Malme-3M = assay: Growth inhibition of human MALME-3M cells assessed as cell growth at 10 uM after 48 hrs by sulforhodamine B assay; format: functional; settings: read-out: Activity
SK-MEL-2 [5] = assay: Growth inhibition of human SK-MEL-2 cells assessed as cell growth at 10 uM after 48 hrs by sulforhodamine B assay; format: functional; settings: SK-MEL-2, 48 h, read-out: Activity
SNB-75 = assay: Growth inhibition of human SNB75 cells after 48 hrs by sulforhodamine B assay; format: functional; settings: SNB-75, 48 h
SN12C = assay: Growth inhibition of human SN12C cells after 48 hrs by sulforhodamine B assay; format: functional
[6] = Growth inhibition of human Hs 578T cells after 48 hrs by sulforhodamine B assay; format: functional
MDA-MB-231 = assay: Growth inhibition of human MDA-MB-231 cells assessed as cell growth at 10 uM after 48 hrs by sulforhodamine B assay; format: functional; settings: MDA-MB-231, 48 h, read-out: Activity
RPMI-8226 = assay: Growth inhibition of human RPMI8226 cells after 48 hrs by sulforhodamine B assay; format: functional, cell-based; settings: RPMI-8226, 48 h
RXF 393 = assay: Growth inhibition of human RXF393 cells assessed as cell growth at 10 uM after 48 hrs by sulforhodamine B assay; format: functional; settings: RXF 393, 48 h, read-out: Activity
CCRF-CEM = assay: Growth inhibition of human CCRF-CEM cells assessed as cell growth at 10 uM after 48 hrs by sulforhodamine B assay; format: functional; settings: read-out: Activity
MDA-MB-468 [7] = assay: Growth inhibition of human MDA-MB-468 cells assessed as cell growth at 10 uM after 48 hrs by sulforhodamine B assay; format: functional; settings: MDA-MB-468, 48 h, read-out: Activity
OVCAR-3 = assay: Growth inhibition of human OVCAR3 cells after 48 hrs by sulforhodamine B assay; format: functional, cell-based; settings: OVCAR-3, 48 h
NCI-H322M = assay: Growth inhibition of human NCI-H322M cells after 48 hrs by sulforhodamine B assay; format: functional
NCI-H226 = assay: Growth inhibition of human NCI-H226 cells after 48 hrs by sulforhodamine B assay; format: functional; settings: NCI-H226, 48 h
LOX IMVI = assay: Growth inhibition of human LOXIMVI cells after 48 hrs by sulforhodamine B assay; format: functional
HCT-15 = assay: Growth inhibition of human HCT15 cells assessed as cell growth at 10 uM after 48 hrs by sulforhodamine B assay; format: functional; settings: HCT-15, 48 h, read-out: Activity
K562 [8] = assay: Growth inhibition of human K562 cells after 48 hrs by sulforhodamine B assay; format: functional; settings: K562, 48 h
HL-60(TB) = assay: Growth inhibition of human HL-60(TB) cells after 48 hrs by sulforhodamine B assay; format: functional; settings: HL-60, 48 h
TK-10 [9] = assay: Growth inhibition of human TK10 cells after 48 hrs by sulforhodamine B assay; format: functional; settings: TK-10, 48 h
NCI-H460 = assay: Growth inhibition of human NCI-H460 cells assessed as cell growth at 10 uM after 48 hrs by sulforhodamine B assay; format: functional; settings: NCI-H460, 48 h, read-out: Activity
HOP-92 [10] = assay: Growth inhibition of human HOP92 cells after 48 hrs by sulforhodamine B assay; format: functional, cell-based; settings: HOP-92, 48 h
A549 [11] = assay: Growth inhibition of human A549/ATCC cells after 48 hrs by sulforhodamine B assay; format: functional; settings: A549, 48 h
DU-145 = assay: Growth inhibition of human DU145 cells after 48 hrs by sulforhodamine B assay; format: functional; settings: DU-145, 48 h
A549 [12] = assay: Growth inhibition of human A549/ATCC cells assessed as cell growth at 10 uM after 48 hrs by sulforhodamine B assay; format: functional; settings: A549, 48 h, read-out: Activity
HOP-92 [13] = assay: Growth inhibition of human HOP92 cells assessed as cell growth at 10 uM after 48 hrs by sulforhodamine B assay; format: functional; settings: HOP-92, 48 h, read-out: Activity
IGROV-1 = assay: Growth inhibition of human IGROV1 cells assessed as cell growth at 10 uM after 48 hrs by sulforhodamine B assay; format: functional; settings: IGROV-1, 48 h, read-out: Activity
[14] = Growth inhibition of human HCC2998 cells assessed as cell growth at 10 uM after 48 hrs by sulforhodamine B assay; format: functional; settings: HCC 2998, 48 h, read-out: Activity
[15] = read-out: LC50 (the source's name)

O=C(Nc1cccc(-n2cc(-c3ccncc3)c(-c3ccc(Cl)c(O)c3)n2)c1)Nc1ccc(Cl)c(C(F)(F)F)c1
GI50 (T47D): 1120 nM | TGI (T47D): > 32500 nM | CC50 (T47D; [15]): > 32500 nM | growth at 10 µM (TK-10 [1]): -1.62% | growth at 10 µM (SNB-19): -28.8% | GI50 (MCF7): 663 nM | LC50 (MCF7): > 32500 nM | TGI (MCF7): > 32500 nM | growth at 10 µM (K562 [2]): -20.8% | GI50 (MDA-MB-468 [3]): 541 nM | IC50 (MDA-MB-468 [3]): 540 nM | TGI (MDA-MB-468 [3]): 1750 nM | CC50 (MDA-MB-468 [3]; [15]): > 32500 nM | GI50 (KM12): 1000 nM | TGI (KM12): 3510 nM | CC50 (KM12; [15]): 17400 nM | GI50 (SK-MEL-2 [4]): 798 nM | LC50 (50% lethal concentration) (SK-MEL-2 [4]): 5840 nM | TGI (SK-MEL-2 [4]): 1730 nM | growth at 10 µM (Malme-3M): -16.6% | growth at 10 µM (SK-MEL-2 [5]): -60.4% | GI50 (SNB-75): 678 nM | LC50 (lethal concentration, 50% net cell kill) (SNB-75): > 32500 nM | TGI (SNB-75): 3200 nM | GI50 (SN12C): 1120 nM | TGI (SN12C): 17100 nM | CC50 (SN12C; [15]): > 32500 nM | GI50 [6]: 797 nM | TGI [6]: 11200 nM | CC50 [6, 15]: > 32500 nM | growth at 10 µM (MDA-MB-231): -36.4% | GI50 (RPMI-8226): 580 nM | IC50 (RPMI-8226): 580 nM | TGI (RPMI-8226): 2000 nM | CC50 (RPMI-8226; [15]): > 32500 nM | growth at 10 µM (RXF 393): -76% | growth at 10 µM (CCRF-CEM): -13.8% | growth at 10 µM (MDA-MB-468 [7]): -49.5% | GI50 (OVCAR-3): 830 nM | IC50 (OVCAR-3): 830 nM | TGI (OVCAR-3): 2090 nM | CC50 (OVCAR-3; [15]): > 32500 nM | GI50 (NCI-H322M): 1090 nM | TGI (NCI-H322M): 4480 nM | CC50 (NCI-H322M; [15]): 24700 nM | GI50 (NCI-H226): 1350 nM | TGI (NCI-H226): > 32500 nM | CC50 (NCI-H226; [15]): > 32500 nM | GI50 (LOX IMVI): 554 nM | LC50 (LOX IMVI): 2390 nM | TGI (LOX IMVI): 1150 nM | growth at 10 µM (HCT-15): 1.04% | GI50 (K562 [8]): 921 nM | TGI (K562 [8]): > 32500 nM | CC50 (K562 [8]; [15]): > 32500 nM | GI50 (HL-60(TB)): 1500 nM | TGI (HL-60(TB)): > 32500 nM | CC50 (HL-60(TB); [15]): > 32500 nM | GI50 (TK-10 [9]): 1500 nM | TGI (TK-10 [9]): 11900 nM | CC50 (TK-10 [9]; [15]): > 32500 nM | growth at 10 µM (NCI-H460): -43.7% | GI50 (HOP-92 [10]): 376 nM | IC50 (HOP-92 [10]): 380 nM | LC50 (HOP-92 [10]): 13500 nM | TGI (HOP-92 [10]): 1460 nM | GI50 (A549 [11]): 927 nM | LC50 (concentration killing 50% of starting cells) (A549 [11]): > 32500 nM | TGI (A549 [11]): 5090 nM | GI50 (DU-145): 1130 nM | LC50 (DU-145): 25100 nM | TGI (DU-145): 4630 nM | growth at 10 µM (A549 [12]): -21.3% | growth at 10 µM (HOP-92 [13]): -30.7% | growth at 10 µM (IGROV-1): 10.4%

O=C(Nc1cccc(-n2cc(-c3ccncc3)c(-c3ccc(Cl)c(O)c3)n2)c1)c1ccccc1
growth at 10 µM (TK-10 [1]): 109% | growth at 10 µM (SNB-19): 99.7% | growth at 10 µM (K562 [2]): 60.7% | growth at 10 µM (Malme-3M): 53.1% | growth at 10 µM (SK-MEL-2 [5]): 67.9% | growth at 10 µM (MDA-MB-231): 63.2% | growth at 10 µM (RXF 393): 0.59% | growth at 10 µM (CCRF-CEM): 67.5% | growth at 10 µM (MDA-MB-468 [7]): 64.1% | growth at 10 µM (HCT-15): 58.2% | growth at 10 µM [14]: 76.8% | growth at 10 µM (NCI-H460): 48.7% | growth at 10 µM (A549 [12]): 52.6% | growth at 10 µM (HOP-92 [13]): 3.59% | growth at 10 µM (IGROV-1): 88%

Cc1cc(C(=O)Nc2cccc(-n3cc(-c4ccncc4)c(-c4ccc(Cl)c(O)c4)n3)c2)ccc1Br
growth at 10 µM (TK-10 [1]): 113% | growth at 10 µM (SNB-19): 115% | growth at 10 µM (K562 [2]): 91.4% | growth at 10 µM (Malme-3M): 82.6% | growth at 10 µM (SK-MEL-2 [5]): 106% | growth at 10 µM (MDA-MB-231): 70% | growth at 10 µM (RXF 393): 91% | growth at 10 µM (CCRF-CEM): 87.2% | growth at 10 µM (MDA-MB-468 [7]): 93.2% | growth at 10 µM (HCT-15): 97.4% | growth at 10 µM (NCI-H460): 108% | growth at 10 µM (A549 [12]): 95.3% | growth at 10 µM (HOP-92 [13]): 97.8% | growth at 10 µM (IGROV-1): 101%

O=C(Nc1cccc(-n2cc(-c3ccncc3)c(-c3ccc(Cl)c(O)c3)n2)c1)c1ccc(Cl)c(C(F)(F)F)c1
growth at 10 µM (TK-10 [1]): 119% | growth at 10 µM (SNB-19): 119% | growth at 10 µM (K562 [2]): 105% | growth at 10 µM (Malme-3M): 79.5% | growth at 10 µM (SK-MEL-2 [5]): 93.7% | growth at 10 µM (MDA-MB-231): 73.5% | growth at 10 µM (RXF 393): 104% | growth at 10 µM (CCRF-CEM): 98.8% | growth at 10 µM (MDA-MB-468 [7]): 98.2% | growth at 10 µM (HCT-15): 92.9% | growth at 10 µM [14]: 123% | growth at 10 µM (NCI-H460): 104% | growth at 10 µM (A549 [12]): 88.8% | growth at 10 µM (IGROV-1): 98.4%
